Our source for the IC50 and activity values is patent US7196083B2, “Heteropolycyclic inhibitors of protein kinases” (priority 2000, dated 2007).

Experiment [1] concerns U-87 (human glioma). Briefly: [3H] thymidine uptake cell proliferation assay, U87. It is filed as cell-based. How it is done: Compounds were added to culture at mid-logarithmic growth and incubated for 20 hours. (N=8 for the values+standard errors). […] Cell lines A-549 (human lung carcinoma), B16-F1 (murine melanoma), B16-F10 (murine melanoma), DU-145 (human […] carcinoma), LS-180 (human colon carcinoma), PC3 (human prostate carcinoma), SKOV-3 (human ovarian carcinoma), U-87 (human glioma), and NIH-3T3 (murine embryonic fibroblasts) were all cultured in DMEM supplemented with 10% fetal bovine serum. M3 murine melanoma cells were cultured in DMEM/F12 1:1, and HT-29 human colon carcinoma and LL2 Lewis Lung […] lung carcinoma were cultured in RPMI1640. All the foregoing cell lines were obtained from ATCC. All cells were passaged regularly using 0.25% Trypsin-EDTA in order to maintain cells at exponential growth for various experiments. LS 180 cells were passaged without trypsin and were physically scraped off the culture flasks. In vitro [^3H] thymidine uptake assay. Proliferation can be measured by quantifying the amount of [^3H] thymidine uptake into cells using a β-counter, and therefore is a well-established diagnostic tool to measure DNA synthesis within the cells. […] The cells were allowed to adhere to the plates via incubation at 37° C. in 5% CO2 for 12–14 hours. […] Then, 10 μL of the compound was added to the pre-existing 90 μL per well, and incubated further at 37° C. in 5% CO2 for 20 hours. To measure thymidine incorporation, cells were fixed onto the culture wells by slowly adding ¼^th volume of cold 50% TCA into each well (25 μL to each well) and incubated for 1–2 hours at 4° C. Wells were washed 5 times with tap water to remove any free [^3H] thymidine in the media, and air-dried completely at room temperature. Then, 100 μL of scintillation fluid was added to each well and the activity counted using a Wallac Microbeta Counter.

Experiment [2] relates to LL2 Lewis Lung human lung carcinoma. Briefly: [3H] thymidine uptake cell proliferation assay, LL2. Conditions: LL/2, read-out: Cell Proliferation Effects (IC50 (nM)). The format is cell-based.
In experiment [3] the test system is M3 murine melanoma cells. Briefly: [3H] thymidine uptake cell proliferation assay, M3. The format is cell-based. Particulars: Mus musculus, read-out: Cell Proliferation Effects (IC50 (nM)).
The subject of experiment [4] is LS-180 (human colon carcinoma). The experiment in a line: [3H] thymidine uptake cell proliferation assay, LS180. The format is cell-based. Particulars: read-out: Cell Proliferation Effects (IC50 (nM)).
For experiment [5], the target named is T1, PKB gamma (Homo sapiens, UniProt Q9Y243).
T1 construct: endogenous in cells; host or cells: U87 cells
T1 sequence (Q9Y243 whole entry): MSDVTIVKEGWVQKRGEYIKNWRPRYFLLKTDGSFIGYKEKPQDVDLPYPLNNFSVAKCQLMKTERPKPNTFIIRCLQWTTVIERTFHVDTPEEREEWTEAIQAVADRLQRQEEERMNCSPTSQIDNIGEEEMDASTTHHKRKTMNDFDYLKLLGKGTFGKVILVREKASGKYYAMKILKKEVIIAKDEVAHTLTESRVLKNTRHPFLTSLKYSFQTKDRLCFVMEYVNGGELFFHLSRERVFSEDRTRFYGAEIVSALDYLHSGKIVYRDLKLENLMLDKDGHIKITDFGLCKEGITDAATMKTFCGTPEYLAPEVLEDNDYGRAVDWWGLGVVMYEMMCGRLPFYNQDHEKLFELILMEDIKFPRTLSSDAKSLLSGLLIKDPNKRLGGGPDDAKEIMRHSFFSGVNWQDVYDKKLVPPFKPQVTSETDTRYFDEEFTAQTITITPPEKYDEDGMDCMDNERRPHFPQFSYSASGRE
Briefly: Kinase assay in U87 cells using anti PKB gamma antibody. It is filed as cell-based. Particulars: U-87 MG, 1 h, after 60 min, read-out: PKB gamma isoform activity, reduction of activity to. How it is done:
(§1) In preparation for this assay, each cell line was seeded at a density of 3 times 1,000,000 cells per plate onto 150 mm culture dishes and allowed to establish o/n at 37 deg C. A confluency of 50–60% was obtained to ensure maximal drug penetration into each cell. Once the cells were adherent to the culture plates, there were treated with PKB inhibitor KP-23172 for a final conc. of 5 uM. Each culture plate was lysed on ice at specific time intervals using 1% NP-40 lysis buffer containing various protease inhibitors; 10 ug/uL aprotinin, 10 ug/ul leupeptin, 1 ug/ul pepstatin, 1 M beta-glycerophosphate and 100 mM PMSF. The resulting lysates were centrifuged at 15K×g at 4 deg C. for 5 min and then assayed for its protein conc. using Bradford's Reagent and absorbance measurements at 595 nm. Equal amounts of protein were transferred to a new centrifuge tube and treated with anti-PKB-PH antibody (Kinetek #XXP-021), anti-PKBalpha antibody (Signal Transduction #67220), or anti-PKB gamma antibody (UBI 306-607) and incubated end over end at 4 deg C. […] All vials were counted for one minute in the scintillation counter.
(§2) A kinase assay in cells was also performed using anti PKB alpha and gamma antibodies in order to determine any inhibition of the isoforms by KP-23172. U87 cells were treated with 5 uM compound, lysed, and the resulting supernatant was analyzed for any changed in PKB activity. […]

Experiment [6] addresses PKB, full-length recombinant bovine protein, alpha form (Bos taurus, UniProt Q01314). The experiment in a line: PKB inhibition in vitro enzyme assay (radioactive phosphate incorporation, scintillation counting). The format is biochemical. Conditions: PKB in vitro enzyme assay, 15 min at room temperature.
In experiment [7] the test system is HT-29 human colon carcinoma. Briefly: [3H] thymidine uptake cell proliferation assay, HT29. Conditions: read-out: Cell Proliferation Effects (IC50 (nM)). The format is cell-based.
Experiment [8] relates to A-549 (human lung carcinoma). The experiment in a line: [3H] thymidine uptake cell proliferation assay, A549. The format is cell-based.
In experiment [9] the target is T2, PKB alpha (Homo sapiens, UniProt P31749).
T2 construct: endogenous in cells; host or cells: U87 cells
T2 sequence (P31749 whole entry): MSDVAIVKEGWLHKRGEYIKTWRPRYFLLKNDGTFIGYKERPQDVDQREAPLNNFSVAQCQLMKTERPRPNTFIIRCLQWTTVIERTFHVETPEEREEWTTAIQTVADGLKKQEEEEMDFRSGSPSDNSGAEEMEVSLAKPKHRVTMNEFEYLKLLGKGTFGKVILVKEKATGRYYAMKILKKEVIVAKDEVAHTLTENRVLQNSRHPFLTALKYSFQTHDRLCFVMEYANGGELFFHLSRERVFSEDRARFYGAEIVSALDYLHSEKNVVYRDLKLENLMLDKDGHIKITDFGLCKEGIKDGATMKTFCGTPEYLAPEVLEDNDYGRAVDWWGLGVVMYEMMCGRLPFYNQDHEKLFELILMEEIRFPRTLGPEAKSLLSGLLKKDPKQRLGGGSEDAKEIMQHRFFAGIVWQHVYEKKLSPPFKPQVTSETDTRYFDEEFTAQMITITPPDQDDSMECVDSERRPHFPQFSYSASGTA
The experiment in a line: Kinase assay in U87 cells using anti PKB alpha antibody. The format is cell-based. Conditions: U-87 MG, 1 h, after 60 min, read-out: PKB alpha isoform activity, reduction of activity to. As for the experimental part: as §1, §2

Experiment [10] concerns human breast carcinoma MDA-MB-435 cell line. Briefly: [3H] thymidine uptake cell proliferation assay, MDA435. The format is cell-based. Conditions: read-out: Cell Proliferation Effects (IC50 (nM)). How it is done: The human breast carcinoma MDA-MB-435 cell line was obtained from MD Anderson Cancer Center, and cultured in alpha-MEM media supplemented with 10% Fetal Bovine Serum. Cells were maintained in T150 tissue culture flasks, and grown at 37° C. in a humidified 5% CO2 incubator. All cells were passaged regularly using 0.25% Trypsin-EDTA in order to maintain cells at exponential growth for various experiments. LS 180 cells were passaged without trypsin and were physically scraped off the culture flasks. In vitro [^3H] thymidine uptake assay. Proliferation can be measured by quantifying the amount of [^3H] thymidine uptake into cells using a β-counter, and therefore is a well-established diagnostic tool to measure DNA synthesis within the cells. […] The cells were allowed to adhere to the plates via incubation at 37° C. in 5% CO2 for 12–14 hours. […] Then, 10 μL of the compound was added to the pre-existing 90 μL per well, and incubated further at 37° C. in 5% CO2 for 20 hours. To measure thymidine incorporation, cells were fixed onto the culture wells by slowly adding ¼^th volume of cold 50% TCA into each well (25 μL to each well) and incubated for 1–2 hours at 4° C. […] Then, 100 μL of scintillation fluid was added to each well and the activity counted using a Wallac Microbeta Counter.

For experiment [11], the system named is DU-145 (human carcinoma). Briefly: [3H] thymidine uptake cell proliferation assay, DU145. The format is cell-based. Particulars: read-out: Cell Proliferation Effects (IC50 (nM)).

pIC50: −log10 of the molar value. Where two headings read alike, the source gives them in different places.

Sequence of PKB, full-length recombinant bovine protein, alpha form (Q01314 whole entry): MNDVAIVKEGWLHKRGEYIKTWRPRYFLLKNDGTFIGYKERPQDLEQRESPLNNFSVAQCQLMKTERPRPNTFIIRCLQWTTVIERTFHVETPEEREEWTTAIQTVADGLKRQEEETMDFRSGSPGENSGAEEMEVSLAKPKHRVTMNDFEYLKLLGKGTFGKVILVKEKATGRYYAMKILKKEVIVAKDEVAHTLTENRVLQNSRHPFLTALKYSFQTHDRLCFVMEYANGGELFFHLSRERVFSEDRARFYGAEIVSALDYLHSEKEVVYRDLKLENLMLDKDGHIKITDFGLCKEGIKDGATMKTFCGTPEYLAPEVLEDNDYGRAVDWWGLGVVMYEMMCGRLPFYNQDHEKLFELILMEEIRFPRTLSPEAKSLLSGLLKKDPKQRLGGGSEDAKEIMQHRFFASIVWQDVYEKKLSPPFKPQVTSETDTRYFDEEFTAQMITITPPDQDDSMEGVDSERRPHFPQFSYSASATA

`O=C1c2ccccc2-c2nc3nnnn3nc21` [KP-23172]: the IC50 in experiment [1] (U-87 MG, U87, read-out: Cell Proliferation Effects (IC50 (nM))) is 50 nM; in experiment [2], 400 nM; in experiment [3], 25 nM; in experiment [4], 80 nM; in [7], 200 nM; in [8] (A549, read-out: Cell Proliferation Effects (IC50 (nM))), 80 nM. Further, the IC50 in experiment [10] is 60 nM; in experiment [11], 50 nM. Also, the pIC50 in experiment [1] (added at mid-logarithmic growth, incubated 20 hours, N=8, read-out: U87 proliferation (thymidine incorporation) IC50, FIG. 1) is 7.30; in [6], 4.82; in [8] (A459 cells, read-out: Cell Proliferation in A459 IC50 in nm) it was 7.10. The activity at 5 µM stood at 18.3% in [5] and 29.6% in experiment [9].
